Columns and labels:
Format in all cases: in vivo
Conditions in all cases: comparative experiment, 20 g of a.i./ha
[1] = system: Pharbitis purpurea; test: Pre-emergence herbicidal action, PHBPU
Method in brief: (§1)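 Greenhouse pre-emergence test: formulated compound (WP or EC) applied in water to the soil covering sown seeds, 600–800 l/ha, 0.2% wetting agent. Scored visually in percent at 3 weeks versus untreated plants.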

[2] = system: Stellaria media; test: Pre-emergence herbicidal action, STEME; set-up: key to Herbicidal action against STEME: % activity: 100 = plants have died, 0 = like control plants
Method in brief: as §1

[3] = system: Avena fatua; test: Pre-emergence herbicidal action, AVEFA
Description: 1. Pre-Emergence Herbicidal Action Against Harmful Plants Seeds of monocotyledonous and dicotyledonous weed plants and crop plants are laid out in sandy loam soil in wood-fiber pots and covered with soil. The compounds of the invention, formulated in the form of wettable powders (WP) or as emulsion concentrates (EC), are then applied to the surface of the covering soil in the form of an aqueous suspension or emulsion at a water application rate equating to 600 to 800 l/ha, with addition of 0.2% wetting agent. After the treatment, the pots are placed in a greenhouse and kept under good growth conditions for the trial plants. The damage to the test plants is scored visually after a test period of 3 weeks by comparison with untreated controls (herbicidal activity in percent (%): 100% activity=the plants have died, 0% activity=like control plants). […] The tables below illustrate, in an exemplary manner, the post-emergence herbicidal action of the compounds according to the invention, the herbicidal activity being stated in percent. [table] In the experiments that follow, herbicidal action of numerous inventive compounds and the known compounds that are structurally closest from D1 (WO 2012/028579 A1) and D2 (WO 2018/202535 A1) were compared under the above-specified conditions by the pre-emergence and post-emergence method. […]

[4] = system: Veronica persica; test: Pre-emergence herbicidal action, VERPE; set-up: key to Herbicidal action against VERPE: % activity: 100 = plants have died, 0 = like control plants
Method in brief: as §1

[5] = system: Viola tricolor; test: Pre-emergence herbicidal action, VIOTR; set-up: key to Herbicidal action against VIOTR: % activity: 100 = plants have died, 0 = like control plants
Method in brief: as §1

[6] = system: Matricaria inodora; test: Pre-emergence herbicidal action, MATIN; set-up: key to Herbicidal action against MATIN: % activity: 100 = plants have died, 0 = like control plants
Method in brief: as §1

CSCc1c(Cl)ccc(C(=O)Nc2nnnn2C)c1C [Example 1-46]
Herbicidal action against PHBPU [1]: 40
Herbicidal action against STEME [2]: 90
Herbicidal action against AVEFA [3]: 20
Herbicidal action against VERPE [4]: 50
Herbicidal action against VIOTR [5]: 70
Herbicidal action against MATIN [6]: 80

From patent US12492173B2, “Herbicidal substituted N-tetrazolyl aryl carboxamides” (Bayer Aktiengesellschaft, priority 2019, dated 2025)
